Inconclusive results and toxic doses are left out.
System: nude mice, LOX melanoma ip, survival T/C
Test: NCI In Vivo Anticancer Drug Screen. Data for tumor model Human Amelanotic Melanoma (LOX) (intraperitoneal) in NU/NU BALB/C (nude) mice
Details: endpoint: median survival time, higher = longer survival
Protocol: The antitumor activity of compounds was measured in mice bearing transplantable tumors. Survival or tumor size were measured and the results are expressed as the measurement made in the treated group (T) divided by the measurement made in the vehicle treated control group (C). The tumor model used in this assay is Human Amelanotic Melanoma (LOX) (intraperitoneal) in NU/NU BALB/C (nude) mice

[1] = dose: 50.0 mg/kg/injection, schedule: Q04DX003 (ip), vehicle: saline with Tween-80
[2] = dose: 100.0 mg/kg/injection, schedule: Q04DX003 (ip), vehicle: saline with Tween-80
[3] = dose: 50.0 mg/kg/injection, schedule: Q04DX003 (ip), vehicle: Klucel (hydroxypropylcellulose) (HPC)
[4] = dose: 100.0 mg/kg/injection, schedule: Q04DX003 (ip), vehicle: Klucel (hydroxypropylcellulose) (HPC)
[5] = dose: 200.0 mg/kg/injection, schedule: Q04DX003 (ip), vehicle: Klucel (hydroxypropylcellulose) (HPC)

## COc1cc(C(CC(C)=O)c2cc3c(cc2OC(C)=O)OCO3)cc(OC)c1OC (stereo not given) (tested in a mixture with another compound)
dose: 25.0 mg/kg/injection, schedule: Q04DX003 (ip), vehicle: saline with Tween-80
  T/C: 104 % of control
[1]
  T/C: 106 % of control
[2]
  T/C: 115 % of control
dose: 200.0 mg/kg/injection, schedule: Q04DX003 (ip), vehicle: saline with Tween-80
  T/C: 120 % of control

## CNC(=S)SC1=NS(=O)(=O)c2ccccc2N1
[3]
  T/C: 100 % of control
[4]
  T/C: 104 % of control
[5]
  T/C: 104 % of control

## CN(C)c1ccc2c(Nc3ccc(NS(C)(=O)=O)cc3)c3ccc(N(C)C)cc3nc2c1
dose: 25.0 mg/kg/injection, schedule: Q04DX003 (ip), vehicle: Klucel (hydroxypropylcellulose) (HPC)
  T/C: 101 % of control
[3]
  T/C: 98 % of control
[4]
  T/C: 113 % of control
[5]
  T/C: 163 % of control
dose: 400.0 mg/kg/injection, schedule: Q04DX003 (ip), vehicle: Klucel (hydroxypropylcellulose) (HPC)
  T/C: 109 % of control

## N/C(=N\OC(=O)Nc1ccc(CSc2ccc(Cl)cc2)o1)c1ccccn1
dose: 18.75 mg/kg/injection, schedule: Q04DX003 (ip), vehicle: Klucel (hydroxypropylcellulose) (HPC)
  T/C: 97 % of control
dose: 37.5 mg/kg/injection, schedule: Q04DX003 (ip), vehicle: Klucel (hydroxypropylcellulose) (HPC)
  T/C: 97 % of control
dose: 75.0 mg/kg/injection, schedule: Q04DX003 (ip), vehicle: Klucel (hydroxypropylcellulose) (HPC)
  T/C: 92 % of control
dose: 150.0 mg/kg/injection, schedule: Q04DX003 (ip), vehicle: Klucel (hydroxypropylcellulose) (HPC)
  T/C: 102 % of control

## S=C1CCCCN1
dose: 37.5 mg/kg/injection, schedule: Q04DX003 (ip), vehicle: distilled water + Tween-80 + alcohol
  T/C: 98 % of control
dose: 75.0 mg/kg/injection, schedule: Q04DX003 (ip), vehicle: distilled water + Tween-80 + alcohol
  T/C: 100 % of control
dose: 150.0 mg/kg/injection, schedule: Q04DX003 (ip), vehicle: distilled water + Tween-80 + alcohol
  T/C: 111 % of control

## CCN(CC)CC(C)(C)C(=O)/C=C/c1ccc(/C=C/C(=O)C(C)(C)CN(CC)CC)cc1
dose: 7.5 mg/kg/injection, schedule: Q04DX003 (ip), vehicle: saline
  T/C: 103 % of control
dose: 15.0 mg/kg/injection, schedule: Q04DX003 (ip), vehicle: saline
  T/C: 116 % of control
dose: 30.0 mg/kg/injection, schedule: Q04DX003 (ip), vehicle: saline
  T/C: 109 % of control

## Nc1ccn([C@@H](C=O)C[C@@H](C=O)CO)c(=O)n1
dose: 18.75 mg/kg/injection, schedule: Q04DX003 (ip), vehicle: saline
  T/C: 105 % of control
dose: 37.5 mg/kg/injection, schedule: Q04DX003 (ip), vehicle: saline
  T/C: 107 % of control
dose: 75.0 mg/kg/injection, schedule: Q04DX003 (ip), vehicle: saline
  T/C: 103 % of control
dose: 150.0 mg/kg/injection, schedule: Q04DX003 (ip), vehicle: saline
  T/C: 103 % of control
dose: 300.0 mg/kg/injection, schedule: Q04DX003 (ip), vehicle: saline
  T/C: 102 % of control

## NC(=S)N/N=C/c1cc(=O)c2cc(Cl)ccc2o1
dose: 75.0 mg/kg/injection, schedule: Q04DX003 (ip), vehicle: other
  T/C: 107 % of control
dose: 150.0 mg/kg/injection, schedule: Q04DX003 (ip), vehicle: other
  T/C: 101 % of control
dose: 300.0 mg/kg/injection, schedule: Q04DX003 (ip), vehicle: other
  T/C: 100 % of control
dose: 600.0 mg/kg/injection, schedule: Q04DX003 (ip), vehicle: other
  T/C: 105 % of control
dose: 1200.0 mg/kg/injection, schedule: Q04DX003 (ip), vehicle: other
  T/C: 101 % of control

## CC(=O)N(C)c1ccc(Nc2cc(C)[nH]c3ccc4ncnc4c23)cc1
dose: 12.5 mg/kg/injection, schedule: Q04DX003 (ip), vehicle: saline with Tween-80
  T/C: 102 % of control
dose: 36.0 mg/kg/injection, schedule: Q04DX003 (ip), vehicle: saline
  T/C: 101 % of control
[1]
  T/C: 99 % of control
dose: 60.0 mg/kg/injection, schedule: Q04DX003 (ip), vehicle: saline
  T/C: 110 % of control
[2]
  T/C: 91 % of control
dose: 100.0 mg/kg/injection, schedule: Q04DX003 (ip), vehicle: saline
  T/C: 100 % of control
dose: 167.0 mg/kg/injection, schedule: Q04DX003 (ip), vehicle: saline
  T/C: 94 % of control

## c1ccc2[nH]c(CN(CCN(Cc3nc4ccccc4[nH]3)Cc3nc4ccccc4[nH]3)Cc3nc4ccccc4[nH]3)nc2c1
dose: 6.25 mg/kg/injection, schedule: Q04DX003 (ip), vehicle: DMSO
  T/C: 102 % of control
dose: 12.5 mg/kg/injection, schedule: Q04DX003 (ip), vehicle: DMSO
  T/C: 110 % of control
dose: 25.0 mg/kg/injection, schedule: Q04DX003 (ip), vehicle: DMSO
  T/C: 113 % of control
dose: 50.0 mg/kg/injection, schedule: Q04DX003 (ip), vehicle: DMSO
  T/C: 111 % of control

## Nc1ccn([C@@H]2C=C(CO)[C@@H](O)[C@H]2O)c(=O)n1
dose: 1.0 mg/kg/injection, schedule: Q01DX009 (ip), vehicle: saline
  T/C: 219 % of control

## CC/C(=C(\c1ccccc1)c1ccc(OCCN(C)C)cc1)c1ccccc1
dose: 75.0 mg/kg/injection, schedule: Q04DX003 (ip), vehicle: suspension in saline
  T/C: 109 % of control
dose: 150.0 mg/kg/injection, schedule: Q04DX003 (ip), vehicle: suspension in saline
  T/C: 101 % of control
dose: 300.0 mg/kg/injection, schedule: Q04DX003 (ip), vehicle: suspension in saline
  T/C: 96 % of control
dose: 600.0 mg/kg/injection, schedule: Q04DX003 (ip), vehicle: suspension in saline
  T/C: 95 % of control

## O=C(O)Cc1cccc(=O)c(O)c1C(=O)O
dose: 75.0 mg/kg/injection, schedule: Q04DX003 (ip), vehicle: saline with Tween-80
  T/C: 97 % of control
dose: 150.0 mg/kg/injection, schedule: Q04DX003 (ip), vehicle: saline with Tween-80
  T/C: 94 % of control

## CS(=O)(=O)CS(=O)(=O)OCCF
dose: 3.13 mg/kg/injection, schedule: Q04DX003 (ip), vehicle: saline
  T/C: 152 % of control
dose: 6.25 mg/kg/injection, schedule: Q04DX003 (ip), vehicle: saline
  T/C: 295 % of control
dose: 12.5 mg/kg/injection, schedule: Q04DX003 (ip), vehicle: saline
  T/C: 295 % of control
dose: 25.0 mg/kg/injection, schedule: Q04DX003 (ip), vehicle: saline
  T/C: 295 % of control
dose: 50.0 mg/kg/injection, schedule: Q04DX003 (ip), vehicle: saline
  T/C: 295 % of control

Reference: PubChem BioAssay AID280 (DTP/NCI, 2004)
